Source: patent US12544375B2, “Small molecule therapeutic for parkinson's disease paired with a biomarker of therapeutic activity” (The Board of Trustees of the Leland Stanford Junior …, priority 2019, dated 2026)

Key:
DMiro = target: T1, DMiro (Drosophila melanogaster, UniProt Q8IMX7); assay: DMiro level in PD flies fed compound, Western blot; format: in vivo, fly; settings: 2.5 μM, mutant LRRK2, PINK1 and SNCA flies
T1 construct: PD flies were fed with 2.5 μM Miro1 Reducer for the indicated time periods and lysed for blotting DMiro; from tissue; host or cells: whole flies (mutant LRRK2, PINK1 null) or heads (mutant SNCA flies)
T1 sequence (Q8IMX7 1-652): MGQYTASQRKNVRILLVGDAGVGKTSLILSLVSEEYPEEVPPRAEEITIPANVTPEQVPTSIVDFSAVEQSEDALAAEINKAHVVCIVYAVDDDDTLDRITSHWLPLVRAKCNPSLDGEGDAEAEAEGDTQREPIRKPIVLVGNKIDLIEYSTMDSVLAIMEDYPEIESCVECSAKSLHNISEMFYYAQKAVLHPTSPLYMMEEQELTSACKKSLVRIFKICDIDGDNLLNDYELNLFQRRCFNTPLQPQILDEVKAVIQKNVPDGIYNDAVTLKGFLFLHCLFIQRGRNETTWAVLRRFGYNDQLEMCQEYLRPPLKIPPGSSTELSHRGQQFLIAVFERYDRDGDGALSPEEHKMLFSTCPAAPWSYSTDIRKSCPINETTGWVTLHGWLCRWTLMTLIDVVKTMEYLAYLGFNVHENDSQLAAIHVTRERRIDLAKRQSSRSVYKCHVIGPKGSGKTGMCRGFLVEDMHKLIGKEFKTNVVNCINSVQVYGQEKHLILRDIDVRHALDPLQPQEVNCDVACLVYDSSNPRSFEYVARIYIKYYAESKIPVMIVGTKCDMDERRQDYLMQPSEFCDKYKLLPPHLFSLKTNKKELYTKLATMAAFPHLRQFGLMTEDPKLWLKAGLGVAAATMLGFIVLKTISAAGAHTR
Experimental: (§1) FIG. 8. Related to FIG. 2-4. Miro1 Reducer in Human Cell and Fly Models. (A) Fibroblasts from Healthy-1 and PD-2 were treated, lysed, and blotted as indicated. Band intensities are normalized to those of GAPDH from the same blots and compared to “Healthy-1, no treatment”. n=4 independent experiments. (B) Fibroblasts from PD-2 were treated and immunostained as indicated. The intensity was quantified for each cell across 264-320 cells from 3 independent experiments, compared to “no treatment”. (C) Fibroblasts were treated, immunoprecipitated (IPed) with anti-Miro1, and blotted as indicated. Similar results were observed twice. (D) Similar as in (C), fibroblasts were treated as indicated, and IPed with anti-Miro1. The GTPase activity of the IPed Miro1 protein was measured as described in Method. […] The MitoSox intensity was quantified for each cell across 106-161 cells from 3 coverslips. […] The TMRM intensity was measured for each cell across 48-60 cells from 3 independent experiments, and expressed as a fraction of the mean of “Healthy-1, no treatment”. […] The movement (the intensity of non-yellow) was quantified for each cell as described in (Tsai et al., 2014) across 22-31 cells from 3 transfections. […] (1) Left: The percentage of TH-positive iPSC-derived neurons out of total cells (Dapi-positive) is calculated after immunocytochemistry under 20× as described in FIG. 3. […]

PINK1 null flies = assay: Non-progressive phenotypes of PINK1 null flies (ATP levels, thoracic indentation, wing posture, flying ability); format: in vivo, fly; settings: PINK1 null flies fed from adult onset with 2.5 μM
Experimental: as §1

In the case of `O=C(Nc1ccc(Nc2cc(-n3ccnc3)ncn2)cc1)Nc1cccc(F)c1` [Miro1 Reducer], the “DMiro band intensity in PD flies” value (DMiro) was “trend of DMiro reduction” and the “non-progressive phenotypes (lowered ATP levels, thoracic indentation, abnormal wing posture, defective flying ability)” value (PINK1 null flies) was “did not improve”.
